Source: patent US20260193531A1, “LIQUID WEIGHTING AGENTS FOR OIL-BASED FLUIDS” (Albemarle Corporation, priority 2022, published 2026)
Like-named read-outs stand apart in the source and are kept apart here.

Columns and labels:
[1] = Density of the esters and ester mixtures; format: physicochemical
[2] = Miscibility with a base oil (solid formation or phase separation after one week); format: physicochemical; conditions: 50:50 weight mixture with a base oil; for miscibility: room temperature
Method: Some of the liquid weighting agents of this invention are usable as oil-miscible weighting agents (OMWA). As used throughout this document, the term “miscible” means that emulsions and/or separate phases are not observed in a 50:50 weight mixture of one or more of the liquid weighting agents of this invention (total of 50 wt %) and an oil (50 wt %) after the mixture has been kept at 0° C. for one week. Similarly, as used throughout this document, the term “partially miscible” means that emulsions and/or separate phases are not observed in a 50:50 weight mixture of one or more of the liquid weighting agents of this invention (total of 50 wt %) and an oil (50 wt %) after the mixture has been kept at room temperature for one week.
The tribromoneopentyl esters were each combined with a base oil in a 50:50 weight mixture.
Some of the tribromoneopentyl monoesters were tested in pairs in a base oil in a 25:25:50 weight ratio, with 25 wt % of each tribromoneopentyl monoester and 50 wt % of the base oil.
The dibromoallyl esters were each combined with a base oil in a 50:50 weight mixture.
Several mixtures of a monoester containing a terminal alkene moiety were tested in a base oil in a 50:50 weight mixture.
Several mixtures of a tribromoneopentyl monoester and a monoester containing a terminal alkene moiety were tested in a base oil in a 25:25:50 weight ratio, with 25 wt % of the tribromoneopentyl monoester, 25 wt % of 2,3-dibromoprop-2-en-1-yl propanoate, and 50 wt % of the base oil.

Leptocheirus plumulosus = format: in vivo; conditions: for Quantity: estimate
Method: Sediment toxicity testing. Sediment toxicity testing was according to U.S. Environmental Protection Agency Method 1644, the “Method for Conducting a Sediment Toxicity Test with Leptocheirus plumulosus and Non-Aqueous Drilling Fluids or Synthetic-Based Drilling Muds”. The testing procedure was as follows: • 1. Leptocheirus plumulosus amphipods were cultured and maintained in natural sediment at 23±2° C. before being exposed to a test sample. • 2. A sample contained sediment, synthetic seawater, and the substance being tested. Five samples of each substance were prepared and tested, the sample having concentrations of 100, 200, 400, 800, and 1600 mg/kg of the substance to be tested. • 3. For each sample, a 1-liter jar was prepared with approximately 150 mL of formulated sediment with 600 mL of synthetic sea water, and the substance to be tested. • 4. In each test, 20 Leptocheirus plumulosus amphipods were exposed to the sample at 20±1° C. for 10 days in the 1-L closed jar; the Leptocheirus plumulosus amphipods were not fed after the test was initiated. • 5. At the end of 10 days, the Leptocheirus plumulosus amphipods remaining alive were counted and an LC50 value was predicted based on those results.

[3] = Closed-bottle anaerobic biodegradation test, EPA Method 1647 (275 days); conditions: Duration 275 days
Method: Anaerobic biodegradation testing. […] For each substance, four samples were run. Each test was compared to separate standard samples containing ethyl oleate, squalane, 1-hexadecene, C16-18 internal olefin, or no additive. To pass the test, the sample must have more net biodegradation than the C16-18 internal olefin. The testing procedure was as follows: • 1. Each test mixture was prepared by combining with 2000 mg carbon (sample) per kg of natural sediment; 30 grams of the mixture were used for each sample run. The carbon content of the sample was measured before mixing the sample with the sediment. […] After a bottle was capped, a nitrogen sparge was employed to remove air in the headspace of the bottle before incubation was started. • 3. During the incubation period, the sample is kept at a constant temperature of 29±1° C. • 4. […] Each sample was brought to ambient temperature to make each measurement. Gas production was measured with a pressure gauge, and barometric pressure was also measured at the time of measurement to make volume corrections.

[4] = sediment toxicity test, Pass/Fail

Compound: CCC(Br)C(=O)OC/C(Br)=C(\Br)COC(=O)C(Br)CC (centres unmarked) [(2E)-2,3-dibromobut-2-ene-1,4-diyl bis(2′-bromobutyrate)]
- Density [1]: 1.94 g/mL

Compound: CC(=O)OCC(Br)=CBr [2,3-dibromoallyl acetate]
- solid formation or phase separation ([2]; 0° C. for one week): no solid formation or phase separation was observed
- Density [1]: 1.83 g/mL

Compound: CC(C)C(=O)OCC(Br)=CBr [2,3-dibromoallyl 2-methylpropanoate]
- solid formation or phase separation ([2]; kept at −18° C. for one week): no solid formation or phase separation was observed
- miscibility [2]: miscible
- Density [1]: 1.70 g/mL

Compound: CCC(=O)OCC(Br)=CBr [2,3-dibromoallyl propionate]
- solid formation or phase separation ([2]; kept at −18° C. for one week): no solid formation or phase separation was observed
- miscibility [2]: miscible
- Density [1]: 1.79 g/mL

Compound: O=C(CBr)OC/C=C\COC(=O)CBr [(2Z)-but-2-ene-1,4-diyl bis(bromoacetate)]
- Density [1]: 1.74 g/mL

Compound: CCC(=O)OC/C(Br)=C(\Br)COC(=O)CC [(2E)-2,3-dibromobut-2-ene-1,4-diyl bis(propanoate)]
- Result (Leptocheirus plumulosus; in vivo): Pass
- Density [1]: 1.59 g/mL
- Amount biodegradation [3]: 54.64%

Compound: CCCC(=O)OCC(CBr)(CBr)CBr [tribromoneopentyl butyrate, 3-bromo-2,2-bis(bromomethyl)propyl butyrate]
- solid formation or phase separation ([2]; 0° C. for one week): no solid formation or phase separation was observed
- Density [1]: 1.79 g/mL

Compound: CC(C)CC(=O)OCC(CBr)(CBr)CBr [tribromoneopentyl isovalerate, 3-bromo-2,2-bis(bromomethyl)propyl isovalerate]
- Density [1]: 1.73 g/mL

Compound: O=C(CBr)OCC(CBr)(CBr)COC(=O)CBr [2,2-bis(bromomethyl)1,3-propanediol-1,3-bis-(bromoacetate)]
- Density [1]: 2.13 g/mL

Compound: CC(C)C(=O)OCc1cc(Br)cc(Br)c1 [(3,5-dibromophenyl)methyl 2-methylpropanoate]
- Density [1]: 1.62 g/mL

Compound: CCCCC(=O)OCC(CBr)(CBr)CBr [tribromoneopentyl valerate, 3-bromo-2,2-bis(bromomethyl)propyl pentanoate]
- Result (Leptocheirus plumulosus; [4]): Pass
- Quantity (Leptocheirus plumulosus; sediment toxicity test): ~363 mg/kg (estimate)
- Density [1]: 1.72 g/mL

Compound: CC(C)C(=O)OCC(CBr)(CBr)CBr [tribromoneopentyl 2-methylpropanoate, 3-bromo-2,2-bis(bromomethyl)propyl 2-methylpropanoate]
- Result (Leptocheirus plumulosus; [4]): Fail
- Quantity (Leptocheirus plumulosus; sediment toxicity test): ~243 mg/kg (estimate)
- Density [1]: 1.79 g/mL

Compound: CC(C)C(=O)OCC(CBr)(CBr)COC(=O)C(C)C [2,2-bis(bromomethyl)1,3-propanediol-1,3-di(2-methylpropanoate)]
- Density [1]: 1.46 g/mL

Compound: CCC(=O)OCC(CBr)(CBr)COC(=O)CC [2,2-bis(bromomethyl)1,3-propanediol-1,3-dipropionate]
- Density [1]: 1.62 g/mL

Compound: CC(C)C(=O)OC/C(Br)=C(\Br)COC(=O)C(C)C [(2E)-2,3-dibromobut-2-ene-1,4-diyl bis(2-methylpropanoate)]
- Density [1]: 1.49 g/mL

Compound: CCCCCC(=O)OCC(CBr)(CBr)CBr [tribromoneopentyl hexanoate, 3-bromo-2,2-bis(bromomethyl)propyl hexanoate]
- Density [1]: 1.57 g/mL

Compound: O=C(CBr)OCC(COC(=O)CBr)OC(=O)CBr [propane-1,2,3-triyl tris (bromoacetate)]
- Density [1]: 1.95 g/mL

Compound: CCCC(=O)OCc1cc(Br)cc(Br)c1 [(3,5-dibromophenyl)methyl butyrate]
- Density [1]: 1.62 g/mL
- Amount biodegradation [3]: 25.1%

Compound: CCCCCC(=O)OCC(CBr)(CBr)COC(=O)CCCCC [2,2-bis(bromomethyl)1,3-propanediol-1,3-dihexanoate]
- Result (Leptocheirus plumulosus; in vivo): Pass
- Density [1]: 1.28 g/mL
- Amount biodegradation [3]: 7.36%

Compound: CCCCC(=O)OCc1cc(Br)cc(Br)c1 [(3,5-dibromophenyl)methyl pentanoate]
- Density [1]: 1.56 g/mL

Compound: CC(=O)OCc1cc(Br)cc(Br)c1 [(3,5-dibromophenyl)methyl acetate]
- Density [1]: 1.76 g/mL

Compound: CCC(=O)OCc1cc(Br)cc(Br)c1 [(3,5-dibromophenyl)methyl propionate]
- Density [1]: 1.68 g/mL

Compound: O=C(CBr)OCc1cc(Br)cc(Br)c1 [(3,5-dibromophenyl)methyl bromoacetate]
- Density [1]: 2.06 g/mL

Compound: CCC(=O)OCC(CBr)(CBr)CBr [tribromoneopentyl propionate, 3-bromo-2,2-bis(bromomethyl)propyl propionate]
- solid formation or phase separation ([2]; 0° C. for one week): phase separation was observed
- solid formation or phase separation ([2]; kept at −18° C. for one week): phase separation was observed
- Density [1]: 1.87 g/mL
